Data on four molecules can be found in patent publication US20210284615A1, “VORTIOXETINE ANALOGUE AND USE AND PREPARATION THEREOF” (priority 2016, published 2021).

Values joined by “and” are separate entries in the source; they are usually repeats but may differ in a detail not shown here. Identical values can stand only once. Like-named read-outs stand apart in the source and are kept apart here.

One data set deals with T1, SLC6A4 (Homo sapiens, UniProt P31645).
T1 construct: host or cells: CHO cells (Chinese hamster ovary, Cat #CCL-61), transient transfection with FuGENE HD
T1 sequence (P31645 whole entry): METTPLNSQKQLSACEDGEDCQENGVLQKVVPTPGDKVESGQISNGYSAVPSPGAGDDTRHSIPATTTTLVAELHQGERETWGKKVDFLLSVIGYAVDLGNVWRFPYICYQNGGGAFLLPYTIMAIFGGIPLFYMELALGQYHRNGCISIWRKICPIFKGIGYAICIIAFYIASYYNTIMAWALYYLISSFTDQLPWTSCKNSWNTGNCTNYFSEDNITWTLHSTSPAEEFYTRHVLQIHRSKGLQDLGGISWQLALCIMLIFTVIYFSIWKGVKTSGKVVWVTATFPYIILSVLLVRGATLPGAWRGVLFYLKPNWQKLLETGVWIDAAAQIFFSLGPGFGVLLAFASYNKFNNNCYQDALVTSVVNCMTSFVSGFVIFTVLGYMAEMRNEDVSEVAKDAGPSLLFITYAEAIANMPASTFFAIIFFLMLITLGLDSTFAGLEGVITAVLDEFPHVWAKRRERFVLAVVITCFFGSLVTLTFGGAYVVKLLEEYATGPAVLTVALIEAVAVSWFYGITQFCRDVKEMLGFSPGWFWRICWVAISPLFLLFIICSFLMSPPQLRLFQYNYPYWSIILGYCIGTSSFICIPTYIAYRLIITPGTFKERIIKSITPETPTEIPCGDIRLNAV
Nature of the data set: [3H]5-hydroxytryptamine (5-HT) reuptake inhibition in CHO cells transfected with pcDNA3.1-SLC6A4-His. To be noted: 25 nM [3H]5-hydroxytryptamine, 30 min. The data set is classed as cell-based. As for the experimental part:
SLC6A4 gene from plasmid Pcmv6-XL4-SLC6A4 (Origene, Cat #SC119478) was amplified by PCR (polymerase chain reaction), and a HIS tag was added to the C terminal, and then inserted into pcDNA3.1 (−) vector at 5′EcoR1 and 31-lind111 restriction enzyme cutting sites to build pcDNA3.1-SLC6A4-His.
CHO cells in logarithmic growth period (Chinese hamster ovary cells, Institute of Cell Biology, Chinese Academy of Sciences, Cat #CCL-61) were collected and counted. The cells were resuspended in F-12 culture media (Gibco, Cat #11330-032) and inoculated on a 96-well plate with 100 μL (20000 cells/well) per well. It was incubated in 5% CO2 incubator (relative humidity 100%) at 37° C. for 24 h.
The above modified plasmids (0.48 μg) were diluted with Opti-MEM culture medium (25 μL, Gibco, Cat #11058021), and blew gently to mix homogenously. […]
Compound 1 and vortioxetine were respectively diluted to 1 mM with Opti-MEM culture medium, then diluted 10 times per 4 times gradient, and then added to the transfected cell wells by 20 μL/well (the corresponding concentrations were 100 μM-0.0004 μM, in total of 10 concentration points, the concentration ratio between each concentration point was 4, each concentration included 3 parallel wells). […] 50 μL of lysed cell fluid was taken, and 200 μL of scintillation solution was added thereto, and reading was conducted with MicroBeta2. […]

The nature of data set [1]: Test of blood drug level in rats. The data set is classed as in vivo, SD rats. Conditions: for Blood drug level: intragastric, Vortioxetine 20 mg/kg (rats A1-A4), Compound 3 22.8 mg/kg (rats B1-B4), individual rats, in ng/mL (unit assumed). On the procedure:
SD rats (male, 180-220 g, Experimental Animal Center, Chongqing Medical University) were randomly divided into groups with 4 rats per group. Food was prohibited, but not water, for 8 hours before administration.
Blood samples were collected from the orbital venous plexus at 0, 1, 2, 4, 6, 8 h after administration, wherein at least 0.3 ml was taken at each time point, and heparin was used for anticoagulant. The obtained whole blood (200 μl) was added to acetonitrile (800 LA, vortexed and shaken for 1 min, and then centrifuged for 10 min at 12000 rpm. The supernatant was taken and kept at −20° C., and the blood drug level of the supernatant was determined by LC/MS/MS. The data for each animal in groups are as follows: […]

Another data set has as its system KM mice. Nature of the data set: Forced swimming test in mice. Type of data set: in vivo. To be noted: 20 mg/kg oral gastric lavage, 1 hour after administration, last 4 min of 6 min swim. As for the experimental part:
KM mice (male, 38-42 g, Experimental Animal Center, Chongqing Medical University) were randomly divided into groups with 6 mice per group. After fasted for 4 h, the mice were placed in a glass cylinder with a diameter of 18 cm, height of 40 cm, water depth of 15 cm (water temperature 25° C.) to swim for 6 min, then dried with a warm air blower. The animals in each experiment group were administrated a solution of corresponding agent (Oral administration of gastric lavage, 20 mg/kg) according to the table below. After 1 hour of administration, the mice were placed in a glass cylinder with a diameter of 18 cm, height of 40 cm, water depth of 15 cm (water temperature 25° C.) to swim for 6 min. The swimming of the mice was recorded within 6 min by a camera system, and the data were automatically collected and analyzed by Noldus software. The quiescent time during swimming was recorded and counted within the last 4 min (for the experiment method, see THE JOURNAL OF PHARMACOLOGY AND EXPERIMENTAL THERAPEUTICS (2012), Vol. 340, No. 3: 666-675).

Data set [2] in a line: Determination of lipid-water partition coefficient. Type of data set: physicochemical. On the procedure:
Vortioxetine hydrobromide (6 mg) and Compound 3 (6 mg) were dissolved respectively in a mixed solution composed of a pH 7.4 of phosphate buffer (3 ml) and n-octyl alcohol (3 ml), and the mixture was allowed to stand for 3 hours at 37° C. The concentration of each compound in water phase and oil phase was respectively determined, and calculated by logP=[…]log (Coil/Cwater). The results are as follows: logPvortioxetine=2.1; logPcompound 3=2.7.

Data set [3] has as its system 5-HTP induced head-twitch model. Nature of the data set: Head-twitch test in mice (5-HTP induced). To be noted: 20 mg/kg intraperitoneal injection, then 200 mg/kg 5-HTP, within 0-10 min. The data set is classed as in vivo, KM mice. On the procedure: KM mice (male, 18-22 g, Experimental Animal Center, Chongqing Medical University) were randomly divided into 6 mice per group. According to the below table, the animals in each experiment group were administrated a solution of corresponding agent, and then 200 mg/kg 5-HTP (5-hydroxytryptophan). The effects of vortioxetine and Compound 3 on the frequency of head-twitch of mice within 0-10 min were determinate (see [i]Brit. J. Pharmacol. (1963), 20, 106-120 for detailed experiment methods).

The conditions of data set [4]: human, cited from earlier work.
The nature of data set [5]: Test of brain concentration and plasma concentration. The data set is classed as in vivo, KM mice. To be noted: male, KM, mouse, Compound 1 23.6 mg/kg. On the procedure: KM mice (male, 18-22 g, Experimental Animal Center, Chongqing Medical University) were randomly divided into groups with 6 mice per group. In accordance with the table below, the animals in each group were respectively injected intravenously with equal moles of vortioxetine (20 mg/kg) and Compound 1 (23.6 mg/kg). Samples of blood and brain tissue of the mouse were taken at 1 and 2 hours after injection. The concentrations of vortioxetine and Compound 1 in blood plasma and brain tissue were respectively measured, and the ratios (concentration in brain tissue/concentration in blood plasma) were calculated.

For data set [6] the following is noted: oral administration; cited from earlier work.
For data set [7] the following is noted: 2 h after oral 20 mg/kg, male Listar Hooded rats; cited from earlier work.

By IC50 is commonly meant the point on the concentration scale where inhibition reaches its midpoint. A high value points to a need for much substance. By melting point is commonly meant the temperature, or range, at which the solid turns liquid. With `Cc1cc(C(F)(F)F)ccc1Sc1ccccc1N1CCNCC1` [Compound 1, 1-[2-(2-methyl-4-trifluoromethylphenylthio)phenyl]piperazine], the melting point lay in the range of 206 to 208 °C. Further, at SLC6A4, the midpoint of inhibition, the IC50, lay at 231 nM.
For orientation: logP means the decadic logarithm of the partition coefficient of the neutral form, usually between octanol and water. `Br.Cc1cc(C(F)(F)F)ccc1Sc1ccccc1N1CCNCC1` [Compound 3, 1-[2-(2-methyl-4-trifluoromethylphenylthio)phenyl] piperazine hydrobromide]: the melting point fell in the range of 170 to 172 °C. The Blood drug level in [1] (0 h, hydrobromide) is 0.815 and 2.195 and 1.62 and 0.975. Further, the Blood drug level in data set [1] (1 h, hydrobromide) was 458.925 and 276.675 and 351.38 and 412.775. For the same molecule, the Blood drug level in data set [1] (2 h, hydrobromide) was 587.71 and 237.72 and 441.03 and 648.63. For the same molecule, the Blood drug level in data set [1] (4 h, hydrobromide) was 726.37 and 181.565 and 334.54 and 297.135. Further, the Blood drug level in data set [1] (6 h, hydrobromide) is 421.06 and 139.79 and 230.075 and 159.715. For the same molecule, the Blood drug level in data set [1] (8 h, hydrobromide) was 386.805 and 37.895 and 109.47 and 78.5. Further, the “blood drug levels compared with equal moles of vortioxetine” value in data set [1] (oral, all time points) is recorded as “higher”. In the data set with KM mice, this molecule had a Quiescent time of 107 ± 31 s. This molecule displayed a logP at 3 h in data set [2] (pH 7.4) of 2.7. Besides, the Number of head-twitch in data set [3] is on record as 45.0 ± 29.0.
`Cc1cc(C(=O)O)ccc1Sc1ccccc1N1CCNCC1` [LUAA34443]: the “share of LUAA34443 and LUAA34443 glucuronide together” value in [4] (oral 14C-vortioxetine free base 50 mg, one combined value for both metabolites) is reported as 44%.
Consider `Cc1ccc(Sc2ccccc2N2CCNCC2)c(C)c1` [Vortioxetine], for which the Kp at 1 h in data set [5] (brain/plasma, 1 hour after intravenous injection, vortioxetine 20 mg/kg, read-out: Concentration ratio in brain tissue and plasma) turned out to be 60.2 ± 8.64. In addition, in data set [5] (brain/plasma, 2 hours after intravenous injection, vortioxetine 20 mg/kg, read-out: Concentration ratio in brain tissue and plasma), the Kp at 2 h came out at 44.6 ± 13.1. For the same molecule, the concentration at 1 h came to 15400 ± 1400 ng/g in data set [5] (brain, 1 hour after intravenous injection, equal moles: vortioxetine 20 mg/kg, read-out: Concentration in brain tissue) and 261 ± 53.5 ng/mL in data set [5] (plasma, 1 hour after intravenous injection, vortioxetine 20 mg/kg, read-out: Blood drug level). The concentration at 2 h stood at 7490 ± 560 ng/g in [5] (brain, 2 hours after intravenous injection, vortioxetine 20 mg/kg, read-out: Concentration in brain tissue) and 167 ± 49.5 ng/mL in data set [5] (plasma, 2 hours after intravenous injection, vortioxetine 20 mg/kg, read-out: Blood drug level). For the same molecule, the bioavailability entry in data set [6] is recorded as “about 75%”. Besides, the Blood drug level in data set [1] (0 h) is 0; in data set [1] (1 h), 48.59 and 163.07 and 183.96 and 256.56; in data set [1] (2 h) it was 85.335 and 149.685 and 164.88 and 195.125; in [1] (4 h), 34.54 and 90.305 and 94.53 and 164.845; in data set [1] (6 h), 17.095 and 47.74 and 40.91 and 72.6; in data set [1] (8 h), 7.13 and 6.76 and 23.35 and 26.315. The same molecule displayed an IC50 against SLC6A4 of 267 nM. The “distribution concentration in brain” value in [7] was 2.77 µg/g. Moreover, the “distribution concentration in kidney” value in data set [7] was 10.3 µg/g. Besides, in data set [7], the “distribution concentration in liver” value was 22.3 µg/g. For the same molecule, in [7], the “distribution concentration in lung” value was 15.5 µg/g. In the data set on KM mice, the Quiescent time was 136 ± 37 s. The “parent drug share in plasma” value in data set [4] (4 hours after oral 14C-vortioxetine free base 50 mg) is “about 8%”. The logP at 3 h in data set [2] (n-octyl alcohol / pH 7.4 phosphate buffer, pH 7.4 phosphate buffer / n-octyl alcohol, 3 hours at 37° C., read-out: logP (lipid-water partition coefficient)) worked out at 2.1. The same molecule showed a Number of head-twitch in data set [3] of 56 ± 10.
